Measured values: patent US8541572B2

system: TNF-α production in LPS-stimulated human whole blood; test: Inhibition of TNF-α production from human whole blood (hWBA); format: cell-based; conditions: Homo sapiens, IC50 for TNF-α production, LPS-stimulated human whole blood; read-out: hWBA

IC50 | SMILES
292 nM | COc1ccc2c(c1)C(=O)N(C[C@@]1(C#Cc3ccc4oc(C5(C)NC(=O)NC5=O)cc4c3)NC(=O)NC1=O)C2 (stereo partly drawn) [Compound 909]
1370 nM | COc1ccc2c(c1)C(=O)N(C[C@@]1(C#Cc3ccc(C(=O)NS(C)(=O)=O)nc3)NC(=O)NC1=O)C2 [Compound 902]
382 nM | COc1ccc2c(c1)C(=O)N(C[C@@]1(C#Cc3ccc(C4(C5CCC5)NC(=O)NC4=O)cc3)NC(=O)NC1=O)C2 (stereo partly drawn) [Compound 906]

same assay, conditions: Homo sapiens, IC50 for inhibition of TNF-α production, LPS-stimulated human whole blood; read-out: hWBA

IC50 | SMILES
678 nM | COc1ccc2c(c1)C(=O)N(C[C@@]1(C#Cc3cncc(-c4cc[nH]n4)c3)NC(=O)NC1=O)C2 [Compound 2234]
514 nM | COc1ccc2c(c1)C(=O)N(C[C@@]1(C#Cc3ccc(N4CCCCC4)nc3)NC(=O)NC1=O)C2 [Compound 1509]
1000 nM | COc1ccc2c(c1)C(=O)N(C[C@@]1(C#Cc3ccc(OC)nc3OC)NC(=O)NC1=O)C2 [Compound 2230]
78 nM | COc1ccc2c(c1)C(=O)N(C[C@@]1(C#Cc3ccc(NC(=O)C4CCN(C)CC4)cc3)NC(=O)NC1=O)C2 [Compound 1909]
10000 nM | COc1ccc2c(c1)C(=O)N(C[C@@]1(C#Cc3cc(Br)ccc3O)NC(=O)NC1=O)C2 [Compound 2229]
936 nM | COc1ccc2c(c1)C(=O)N(C[C@@]1(C#Cc3ccccc3C=O)NC(=O)NC1=O)C2 [Compound 1918]

same assay, conditions: IC50 for TNF-α production, LPS-stimulated human whole blood; read-out: hWBA

SMILES | IC50
COc1ccc2c(c1)CCN(C[C@@]1(C#Cc3ccc(C(=NO)N4CCOCC4)cc3)NC(=O)NC1=O)C2=O [Compound 2319] | 1060 nM
COc1ccc2c(c1)C(=O)N(C[C@@]1(C#Cc3cccc(C(=NO)N4CCN(C)CC4)c3)NC(=O)NC1=O)C2 [Compound 915] | 221 nM

Next, values leading:

IC50 | SMILES
2260 nM | COc1ccc2c(c1)C(=O)N(C[C@@]1(C#Cc3cccnc3-c3ccncc3)NC(=O)NC1=O)C2 [Compound 2291]
2540 nM | COc1ccc2c(c1)C(=O)N(C[C@@]1(C#Cc3cccnc3-c3c(C)nn(C)c3C)NC(=O)NC1=O)C2 [Compound 2264]

same assay, conditions: IC50 for inhibition of TNF-α production, LPS-stimulated human whole blood; read-out: hWBA

SMILES | IC50
COc1ccc2c(c1)C(=O)N(C[C@@]1(C#Cc3ccc(N4CCC(=O)CC4)nc3)NC(=O)NC1=O)C2 [Compound 2211] | 1000 nM
COc1ccc2c(c1)C(=O)N(C[C@@]1(C#Cc3ccc4[nH]nc(N)c4c3)NC(=O)NC1=O)C2 [Compound 2237] | 520 nM
COc1ccc2c(c1)C(=O)N(C[C@@]1(C#Cc3ccc(N4C(=O)CCC4(C(=O)O)C(C)(C)O)nc3)NC(=O)NC1=O)C2 (stereo partly drawn) [Compound 1906] | 578 nM
CCN1CCN(c2cccc(-c3ccc(C#C[C@]4(CN5Cc6ccc(OC)c(F)c6C5=O)NC(=O)NC4=O)cc3)n2)CC1 [Compound 991] | 606 nM
CCN1CCN(c2ccc(O)c(-c3ccc(C#C[C@]4(CN5Cc6ccc(OC)cc6C5=O)NC(=O)NC4=O)cc3F)n2)CC1 [Compound 976] | 39.8 nM
COc1ccc2c(c1F)C(=O)N(C[C@@]1(C#Cc3ccc4c(c3)CN(C)C(=O)N4)NC(=O)NC1=O)C2 [Compound 307] | 281 nM
COc1ccc2c(c1)C(=O)N(C[C@@]1(C#Cc3cnc4nc(O)oc4c3)NC(=O)NC1=O)C2 [Compound 2244] | 574 nM
COc1ccc2c(c1F)C(=O)N(C[C@@]1(C#Cc3ccc(CN4CCN(c5ccncc5)CC4)nc3)NC(=O)NC1=O)C2 [Compound 979] | 228 nM

Further lines, results first:

IC50 | SMILES
1140 nM | COc1ccc2c(c1)C(=O)N(C[C@@]1(C#Cc3ccc(-n4cncn4)cc3)NC(=O)NC1=O)C2 [Compound 2228]
128 nM | COc1ccc2c(c1)C(=O)N(C[C@@]1(C#Cc3ccc(-c4cc(N)[nH]n4)cc3)NC(=O)NC1=O)C2 [Compound 747]
96 nM | COc1ccc2c(c1F)C(=O)N(C[C@@]1(C#Cc3ccc(-c4ncccc4O)cc3)NC(=O)NC1=O)C2 [Compound 1010]
342 nM | COc1ccc2c(c1)C(=O)N(C[C@@]1(C#Cc3ccc(-c4ncccc4OC(=O)C(C)(C)C)cc3)NC(=O)NC1=O)C2 [Compound 1008]
2390 nM | COc1ccc2c(c1)C(=O)N(C[C@@]1(C#Cc3ccc(-c4cnccc4C)nc3)NC(=O)NC1=O)C2 [Compound 1100]
156 nM | COc1ccc2c(c1)C(=O)N(C[C@@]1(C#Cc3ccc4c(O)n[nH]c4c3)NC(=O)NC1=O)C2 [Compound 748]
